Data taken from patent US20260293895A1, “HERBICIDAL DERIVATIVES” (SYNGENTA CROP PROTECTION AG, priority 2023, published 2026).

Tests used:
Type in all cases: in vivo
Setaria faberi (SETFA) [1] = assay: Pre-emergence herbicidal test, Setaria faberi (SETFA); settings: 250 g/ha, evaluated after 13 days, glasshouse
[2] = test system: Amaranthus retoflexus (AMARE); assay: Pre-emergence herbicidal test, Amaranthus retoflexus (AMARE); settings: 250 g/ha, evaluated after 13 days, glasshouse
[3] = test system: Echinochloa crus-galli (ECHCG); assay: Pre-emergence herbicidal test, Echinochloa crus-galli (ECHCG); settings: 250 g/ha, evaluated after 13 days, glasshouse
[4] = test system: Amaranthus palmeri (AMAPA); assay: Pre-emergence herbicidal test, Amaranthus palmeri (AMAPA); settings: 250 g/ha, evaluated after 13 days, glasshouse
Zea mays (ZEAMX) [5] = assay: Pre-emergence test, Zea mays (ZEAMX); settings: 250 g/ha, evaluated after 13 days, glasshouse, crop
Setaria faberi (SETFA) [6] = assay: Post-emergence herbicidal test, Setaria faberi (SETFA); settings: 250 g/ha, sprayed after 8 days cultivation, evaluated after 13 days, glasshouse
Protocol: (§1) Seeds of a variety of test species are sown in standard soil in pots (Setaria faberi (SETFA), Echinochloa crus-galli (ECHCG), Amaranthus palmeri (AMAPA), Zea mays (ZEAMX), Amaranthus retoflexus (AMARE),). After 8 days cultivation under controlled conditions in a glasshouse (at 24° C./16° C., day/night; 14 hours light; 65% humidity), the plants are sprayed with an aqueous spray solution derived from the formulation of the technical active ingredient in acetone/water (50:50) solution containing 0.5% Tween 20 (polyoxyethelyene sorbitan monolaurate, CAS RN 9005-64-5). Compounds are applied at 250 g/ha unless otherwise stated. The test plants are then grown in a glasshouse under controlled conditions in a glasshouse (at 24° C./16° C., day/night; 14 hours light; 65% humidity) and watered twice daily. After 13 days the test is evaluated for the percentage damage caused to the plant. The biological activities are shown in the following table on a five-point scale (5=81-100%; 4=61-80%; 3=41-60%; 2=21-40%; 1=1-20%; 0=no activity; -=not tested).

[7] = test system: Amaranthus retoflexus (AMARE); assay: Post-emergence herbicidal test, Amaranthus retoflexus (AMARE); settings: 250 g/ha, sprayed after 8 days cultivation, evaluated after 13 days, glasshouse
Protocol: as §1

[8] = test system: Echinochloa crus-galli (ECHCG); assay: Post-emergence herbicidal test, Echinochloa crus-galli (ECHCG); settings: 250 g/ha, sprayed after 8 days cultivation, evaluated after 13 days, glasshouse
Protocol: as §1

[9] = test system: Amaranthus palmeri (AMAPA); assay: Post-emergence herbicidal test, Amaranthus palmeri (AMAPA); settings: 250 g/ha, sprayed after 8 days cultivation, evaluated after 13 days, glasshouse
Protocol: as §1

Zea mays (ZEAMX) [10] = assay: Post-emergence test, Zea mays (ZEAMX); design: key: 5: 81-100%; 4: 61-80%; 3: 41-60%; 21-40%; 1-20%; 0: no activity; -: not tested; settings: 250 g/ha, sprayed after 8 days cultivation, evaluated after 13 days, glasshouse, crop
Protocol: as §1

Structure (SMILES): CCn1c(Cl)cc(=O)c(C(=O)O)c1-c1ccc(Cl)c(Cl)c1 [Compound 2, 6-chloro-2-(3,4-dichlorophenyl)-1-ethyl-4-oxo-pyridine-3-carboxylic acid]
- percentage damage caused to the plant, SETFA (Setaria faberi (SETFA) [1]): 5 (81-100%)
- percentage damage caused to the plant, AMARE [2]: 3 (41-60%)
- percentage damage caused to the plant, ECHCG [3]: 3 (41-60%)
- percentage damage caused to the plant, AMAPA [4]: 2 (21-40%)
- percentage damage caused to the plant, ZEAMX (Zea mays (ZEAMX) [5]): 1 (1-20%)
- percentage damage caused to the plant, SETFA (Setaria faberi (SETFA) [6]): 4 (61-80%)
- percentage damage caused to the plant, AMARE [7]: 1 (1-20%)
- percentage damage caused to the plant, ECHCG [8]: 3 (41-60%)
- percentage damage caused to the plant, AMAPA [9]: 1 (1-20%)
- percentage damage caused to the plant, ZEAMX (Zea mays (ZEAMX) [10]): 0
